Measurements published in patent US5177240A, “o-Phosphono(alkyl)-N-sulfonyl-phenyl-alanine derivatives useful as intermediates for preparation of phosphono-hydroisoquinolines” (G. D. Searle & Co., priority 1990, dated 1993).

Experiments:
NMDA receptor = NMDA receptor binding assay (NMDA-specific L-[3H]-glutamate binding, synaptic plasma membranes); settings: 12.5 nM L-[3H]-glutamate, pH 7.4, 0-4° C., 10 min
Description: Synaptic plasma membranes (SPM) were prepared as previously described Monahan, J. B. and Michel, J., "Identification and Characterization of an N-methyl-D-aspartate-specific L-[^3 H]-glutamate Recognition Site in Synaptic Plasma Membranes, J. Neurochem., 48, 1699-1708 (1987)]. The SPM were stored at a concentration of 10-15 mg/ml in 0.32M sucrose, 0.5 mM EDTA, 1 mM MgSO4, 5 mM Tris/sulfate, pH 7.4, under liquid nitrogen. The identity and purity of the subcellular fractions were confirmed by both electron microscopy and marker enzymes. Protein concentrations were determined by using a modification of the method of Lowry [Ohnishi, S. T. and Barr, J. K., "A Simplified Method of Quantitating Proteins Using the Biuret and Phenol Reagents", Anal. Biochem., 86, 193-197 (1978)]. The SPM were treated identically for the [^3 H]AMPA (QUIS), [^3 H]kainate and sodium-dependent L-[^3 H]-glumatate binding assays. The SPM were thawed at room temperature, diluted twenty-fold with 50 mM Tris/acetate, pH 7.4, incubated at 37° C. for 30 minutes, and centrifuged at 100,000 g for 15 minutes. The dilution, incubation and centrifugation were repeated a total of three times. Prior to use in the NMDA-specific L-[^3 H]-glutamate binding assay, the SPM were thawed, diluted twenty fold with 50 mM Tris/acetate (pH 7.4 containing 0.04% (v/v) Triton X-100), incubated for 30 minutes at 37° C. and centrifuged as described above. The Triton X-100 treated membranes were washed with 50 mM Tris/acetate (pH 7.4) and centrifuged at 100,000 g for 15 minutes a total of four times. The basic procedure for the receptor subclass binding assays was similar. This general method involved adding the radioligand (12.5 nM L-[^3 H]-glutamate; 0.5 nM [^3 H]kainate or 10nM [^3 H]AMPA) to the appropriate concentration of the test compound and initiating the assay by the addition of ice cold synaptic plasma membranes (0.2-0.45 mg). The binding assays were performed in 1.5 mL centrifuge tubes with the total volume adjusted to 1.0 mL. Additions of test compounds were made in 50 mM Tris/acetate (pH 7.4) and incubations were carried out at 0°-4° C. The incubation time for each of the NMDA and the AMPA binding assays was 10 minutes, for the kainate binding assay 60 minutes and for the sodium-dependent glutamate binding assay 15 minutes. The AMPA binding assay contained 100 mM KSCN and the sodium-dependent glutamate binding assay contained 150 mM sodium acetate in addition to the previously described reagents. To terminate the incubation, the samples were centrifuged for 15 minutes at 12,000 g and 4° C. in a Beckman Microfuge 12. The supernatant was aspirated and the pelleted membranes dissolved in Beckman BTS-450 tissue solubilizer for a minimum of 6 hours at room temperature. Beckman MP scintillation cocktail containing 7 mL/L acetic acid was then added and the samples counted on a Beckman LS 5800 or 3801 liquid scintillation counter with automatic corrections for quenching and counting efficiency. Nonspecific binding was defined as the residual binding in the presence of either excess L-glutamate (0.1-0.4 mM), kainate (0.01 mM), or NMDA (0.5 mM), and was 15-25% of the total binding in the NMDA binding assay, 19-27% in the AMPA binding assay, 20-30% in the kainate binding assay and 10-15% in the sodium-dependent binding assay. Radioligand binding to the synaptic plasma membranes was analyzed using Scatchard and Hill transformations and the Ki values of the compounds determined using logit-log transformations. Calculations and regression analysis were performed using templates developed for Lotus 1, 2, 3 as previously described [Pullan, L. M. "Automated Radioligand Receptor Binding Analysis with Templates for Lotus", Computer Appln. Biosci., 3 131 (1987)]. Binding results are reported in Table II for example compounds of the invention. Included in Table II are binding data for D,L-AP7[D,L-2-amino-7-phosphonoheptanoic acid].

KA (kainate) receptor = assay: Kainate (KA) receptor binding assay ([3H]kainate, synaptic plasma membranes); settings: 0.5 nM [3H]kainate, pH 7.4, 0-4° C., 60 min
Description: (§1) Synaptic plasma membranes (SPM) were prepared as previously described Monahan, J. B. and Michel, J., "Identification and Characterization of an N-methyl-D-aspartate-specific L-[^3 H]-glutamate Recognition Site in Synaptic Plasma Membranes, J. Neurochem., 48, 1699-1708 (1987)]. The SPM were stored at a concentration of 10-15 mg/ml in 0.32M sucrose, 0.5 mM EDTA, 1 mM MgSO4, 5 mM Tris/sulfate, pH 7.4, under liquid nitrogen. The identity and purity of the subcellular fractions were confirmed by both electron microscopy and marker enzymes. Protein concentrations were determined by using a modification of the method of Lowry [Ohnishi, S. T. and Barr, J. K., "A Simplified Method of Quantitating Proteins Using the Biuret and Phenol Reagents", Anal. Biochem., 86, 193-197 (1978)]. The SPM were treated identically for the [^3 H]AMPA (QUIS), [^3 H]kainate and sodium-dependent L-[^3 H]-glumatate binding assays. […] Beckman MP scintillation cocktail containing 7 mL/L acetic acid was then added and the samples counted on a Beckman LS 5800 or 3801 liquid scintillation counter with automatic corrections for quenching and counting efficiency. […] Radioligand binding to the synaptic plasma membranes was analyzed using Scatchard and Hill transformations and the Ki values of the compounds determined using logit-log transformations. […]

[1] = system: TCP (1-[1-(2-thienyl)-cyclohexyl]piperidine) binding; assay: TCP Modulation Assay ([3H]TCP binding, rat brain synaptic membranes); settings: 2 nM tritiated TCP, 0.05 mM L-glutamate, pH 7.4, 25° C., 60 min
Description: The effect on the TCP (1-[1-(2-thienyl)-cyclohexyl]piperidine) binding was measured in rat brain synaptic membranes (SPM) prepared as previously described [J. B. Monahan & J. Michel; J. Neurochem. 48:1699-1708 (1987)]. Prior to their use in the binding assay, frozen SPM were thawed, diluted twenty fold with 50 mM Tris/acetate (pH 7.4 containing 0.04% (v/v) Triton X-100), incubated for 30 min. at 37° C. and centrifuged at 95,000×g for 15 min. The Triton X-100 treated SPM were washed with 5 mM Tris/HCl, pH 7.4 and centrifuged a total of six times. The compound of Example II was incubated at different concentrations with SPM (0.2-0.4 mg protein) and 2 nM tritiated TCP, in a total volume of 0.5 ml of 5 mM Tris/HCl buffer pH 7.4 at 25° C. for 60 min. The samples were filtered through glass fiber filters (Schleicher & Schuell #32) which have been pretreated with 0.05% (v/v) polyethylenimine, washed 4 times with 2 ml of ice-cold 5 mM Tris/HCl buffer, and then counted on a Beckman LS 5800 liquid scintillation counter with automatic corrections for quenching and counting efficiency. Inhibition of TCP binding was measured as a decrease in the binding in the presence of 0.05 mM L-glutamate. Non-specific binding was defined as the residual binding in the presence of 60 […].

[2] = target: Quis (quisqualate) receptor; assay: Quisqualate (QUIS) receptor binding assay ([3H]AMPA, synaptic plasma membranes); settings: 10 nM [3H]AMPA, 100 mM KSCN, pH 7.4, 0-4° C., 10 min; read-out: NMDA receptor binding Ki, Quis
Description: as §1, with “assays. The SPM were thawed at room temperature, diluted twenty-fold with 50 mM Tris/acetate, pH 7.4, incubated at 37° C. for 30 minutes, and centrifuged at 100,000 g for 15 minutes. The dilution, incubation and centrifugation were repeated a total of three times. Prior to use in the NMDA-specific L-[^3 H]-glutamate binding assay, the SPM were thawed, diluted twenty fold with 50 mM Tris/acetate (pH 7.4 containing 0.04% (v/v) Triton X-100), incubated for 30 minutes at 37° C. and centrifuged as described above. The Triton X-100 treated membranes were washed with 50 mM Tris/acetate (pH 7.4) and centrifuged at 100,000 g for 15 minutes a total of four times. The basic procedure for the receptor subclass binding assays was similar.” for “assays.”

[3H]MK-801 receptor = MK-801 Modulation Assay ([3H]MK-801 binding, synaptic plasma membranes from rat forebrain); settings: 2.0 nM [3H]MK-801, pH 7.4, 120 min, 25° C.; decrease in specific basal binding; read-out: IC50, inhibition of [3H]MK-801 binding
Description: [^3 H]MK-801 binding was performed using Triton X-100 washed synaptic plasma membranes (SPM) prepared from rat forebrain (30-45 day old, male Sprague-Dawley; Sasco, St. Charles, MO) as described previously [J. W. Thomas, W. F. Hood, J. B. Monahan, P. C. Contreras and T. L. O'Donohue, Brain Res., 442, 396-398 (1988)]. The assay was initiated by the addition of SPM (0.20-0.30 mg) to an incubation containing 2.0 nM [^3 H]MK-801 (15 Ci/mmole; New England Nuclear, Boston, MA) and various concentrations of the appropriate test compound in a total volume of 0.5 ml (all additions were made in 50mM Tris/acetate buffer, pH 7.4) and continued for 120 min at 25° C. The samples were then filtered through glass fiber filters (Schleicher and Schuell #32) which were pretreated with 0.05% (v/v) polyethylenimine. The filters were washed and the radioactivity quantitated by liquid scintillation spectrometry. Inhibition of [^3 H]MK-801 binding was measured as a decrease in specific basal binding (basal binding=2583 ±381 DPM) with nonspecific binding as the residual binding in the presence of 60 μM MK-801 (562 ±30 DPM).

[3H]glycine binding = Glycine Binding Assay ([3H]glycine, synaptic plasma membranes from rat forebrain); settings: 10 nM [3H]glycine, pH 7.4
Description: Synaptic plasma membranes (SPM) were prepared from rat forebrain and stored as previously described [J. B. Monahan and J. Michel, J. Neurochem., 48, 1699-1708 (1987)]. Frozen membranes were thawed and diluted 1:20 with 0.04% Triton X-100 in 50 mM Tris/acetate (pH 7.4). Following incubation at 37° C. for 30 min., the SPM were collected by centrifugation at 95,000×g for 15 min. The pellet was resuspended in 50 mM Tris/acetate (pH 7.4, Triton-free) and hand-homogenized five times. The membranes were again centrifuged as above. The pellet was washed two additional times with 50 mM Tris/acetate (without homogenization) and centrifuged. The final pellet was resuspended with homogenization in 50 mM Tris/acetate. In the general receptor binding assay procedure, 10 nM [^3 H]glycine was added to the appropriate concentration of the test compounds and the assay initiated by the addition of 0.2-0.4 mg of ice cold SPM. […] Beckman MP scintillation cocktail (5 ml) containing 7 ml/liter acetic acid was then added and the samples counted on a Beckman LS 5800 liquid scintillation counter with automatic corrections for quenching and counting efficiency. […] The binding of [^3 H]glycine to the SPM was analyzed using Scatchard and Hill transformations and the Ki for other compounds was determined using logit-log analysis. […]

Structure (SMILES)	Ki (NMDA receptor) [nM]	further results
O=C(O)C1CC2C(CCCC2P(=O)(O)O)CN1 (centres unmarked) [Ex. 7]	1300	
O=C(O)C1Cc2c(cccc2CP(=O)(O)O)CN1 (centres unmarked) [Ex. 17, 3-carboxy-5-(phosphonomethyl)-1,2,3,4-tetrahydroisoquinoline]	18000	
O=C(O)C1Cc2c(cccc2P(=O)(O)O)CN1 (single isomer, unassigned; (+)) [Ex. 13, (+)-3-carboxy-5-phosphono-1,2,3,4-tetrahydroisoquinoline]	900	
O=C(O)C1CC2=C(CC=CC2P(=O)(O)O)CN1 (centres unmarked) [Ex. 3, 3-carboxy-5-phosphono-1,2,3,4,5,8-hexahydroisoquinoline]	3000	
Cl.O=C(O)C1Cc2c(cccc2P(=O)(O)O)CN1 (centres unmarked) [Ex. 2, 3-carboxy-5-phosphono-1,2,3,4-tetrahydroisoquinoline hydrochloride]	1600	Kainate receptor binding Ki (KA (kainate) receptor): ~ 300 μM; inhibition of TCP binding ([1]; at 5 μM): 64%; inhibition of TCP binding ([1]; at 50 μM): 91%; Ki [2]: > 300000 nM; IC50 ([3H]MK-801 receptor): 480 nM; maximum inhibition of [3H]-glycine binding ([3H]glycine binding): approximately 40%; IC20 ([3H]glycine binding; calculated, based on maximum inhibition of approximately 40%): 1900 nM
N[C@H](CCCCCP(=O)(O)O)C(=O)O [D-AP7]	4000	Ki [2]: > 300000 nM
O=C(O)C1CC2C(CCCC2P(=O)(O)O)CN1 (centres unmarked) [Ex. 5]	1600	IC50 ([3H]MK-801 receptor): 1380 nM
CCOC(=O)C1Cc2c(cccc2P(=O)(O)O)CN1 (centres unmarked) [Ex. 15, 5-phosphono-3-(ethoxycarbonyl)-1,2,3,4-tetrahydroisoquinoline]	> 100000	
NC(CCCCCP(=O)(O)O)C(=O)O (racemic) [D,L-AP7, D,L-2-amino-7-phosphonoheptanoic acid]	5400	Ki [2]: > 300000 nM
O=C(O)C1CC2C(CCCC2P(=O)(O)O)CN1 (centres unmarked) [Ex. 6]	11200	
O=C(O)C1CC2=C(CCCC2P(=O)(O)O)CN1 (centres unmarked) [Ex. 4, 3-carboxy-5-phosphono-1,2,3,4,5,6,7,8-octahydroisoquinoline]	1200	
O=C(O)C1Cc2c(cccc2P(=O)(O)O)CN1 (single isomer, unassigned) [Ex. 14]	3100	
Cc1ccc2c(c1P(=O)(O)O)CC(C(=O)O)NC2 (centres unmarked) [Ex. 16]	5900	
